Data: patent publication US20120288531A1, “PHARMACEUTICAL COMPOSITIONS FOR DELIVERY OF FERRIC IRON COMPOUNDS, AND METHODS OF USE THEREOF” (priority 2011, published 2012)

Tests used:
Blood hemoglobin = assay: Repeated doses: effect on blood hemoglobin in normal SD rats; assay type: in vivo; details: ROA IJ (FAC) or PO (ferrous sulfate)
Description: Blood samples were collected pre-dosing (Day 1) and post-dosing (Day 22). Blood hemoglobin was evaluated using colorimetric assay.

[1] = Stability of ferric acetyl-hydroxamate complex in pre-hydrophilic fraction; details: pre-hydrophilic fraction of Table 1 (10% PVP-12 and 15% NaC8), 4 hours
[2] = one month at 25° and 40° C.

ferrous sulfate
Hb at Day 22 (Mean ± SE) (Blood hemoglobin; post-dosing, daily for 21 days (18 doses), 6.3 mg iron per dose): 13.9 ± 0.2 g/dL | Hb at Day 1 (Mean ± SE) (Blood hemoglobin; pre-dosing, normal SD rats): 14.2 ± 0.2 g/dL

CC(=O)N[O-].CC(=O)N[O-].CC(=O)N[O-].[Fe+3] [ferric acetyl-hydroxamate]
precipitation and Fe2+ formation [1]: Neither precipitation nor Fe^2+ formation was observed | stability in the pre-hydrophilic fraction [1]: stable for 4 hours

O.O=C([O-])CN(CCN(CC(=O)[O-])CC(=O)[O-])CC(=O)[O-].[Fe+3].[Na+] [ferric sodium EDTA, ethylenediaminetetraacetic acid iron(III) sodium salt hydrate]
stability in the oily suspension [2]: good stability
